Data: a melting point compilation (Tetko et al.)

Details: a range is the spread between reports

Compound | melting point [°C]
Clc1ccc(-c2ccc(Cl)cc2)cc1 | 149
CC(=O)c1cc(C)ccc1O | 47 to 50
COc1cccc(OC)c1C(C)=O | 69 to 70
Cc1nc(-c2ccc(-c3nc(C)c(-c4ccccc4)o3)cc2)oc1-c1ccccc1 | 232 to 234
Cc1ccc(C)c(N)c1 | 12 to 15.5
CCCCCCCCCCCCCCCCCCCCCC | 42 to 45
O=C(O)c1c(F)cc(F)cc1F | 141 to 143
Cc1ccccc1CCl | -2 to 2
CC(C)CNCC(C)C | -77 to -73.5
Oc1ccccc1Cl | 7 to 9.8
CNc1ccc(Cl)cc1C(=O)c1ccccc1 | 94 to 96
C=C(Cl)C(=O)O | 65 to 66
C=Cc1ccc2ccccc2c1 | 65 to 66
O=C(O)c1cccc(Cl)c1 | 156 to 158
OCc1ccc(Br)cc1 | 76 to 78
COc1ccc(C=O)c(C(=O)O)c1OC | 147 to 150
O=C(O)c1cccc(O)c1 | 202 to 203
O=C(O)CCCCCC(=O)O | 104 to 106
Cc1ccc2ccccc2c1 | 33 to 34.4
Oc1cccc(O)c1 | 110 to 111
CC1CC1(C)C (stereo not given) | -138
O=CC1CCCCC1 | 34.5 to 35
C=CC(N)=O | 84 to 84.5
ClC(Cl)C(Cl)(Cl)Cl | -29 to -28.8

Compound | melting point [°C]
C1CO1 | -112 to -111
ClCC1CO1 (stereo not given) | -57.2 to -57
CC=CC(C)CC (stereo not given) | -126
CCCS | -113
COP(=S)(OC)Oc1ccc(SC)c(C)c1 | 7 to 7.5
CCN(CC)c1ccccc1 | -38.8 to -38
C=CCSCC=C | -85 to -83
Nc1ccccc1-c1ccccc1 | 49 to 51.5
O=C1C=CC(=O)O1 | 52.8 to 54
CC(C)=CC(C)C | -128
CCCCCCC(=O)Cl | -84 to -83.8
Brc1ccccc1 | -31 to -30.6
COC(=O)C1C(OC(=O)c2ccccc2)CC2CCC1N2C (stereo not given) | 93.5 to 98
Brc1ccc(Br)cc1 | 87 to 88
CCCCCCOC=O | -63 to -62.6
c1ccsc1 | -39.4 to -38
O=[N+]([O-])c1ccc(F)cc1 | 21 to 23
CC(=CC(=O)O)C(=O)O | 90 to 93.5
c1cnccn1 | 53 to 55
CC(C)N(CCC(C(N)=O)(c1ccccc1)c1ccccn1)C(C)C (stereo not given) | 94.8
Cc1c(N)cccc1Cl | 1 to 2
O=C(O)CCCCCCCBr | 38.5 to 39
OCC1OC(OC2(CO)OC(CO)C(O)C2O)C(O)C(O)C1O (stereo not given) | 186 to 188
CCCCCCCCCCCCCCCCCCCCCCO | 70 to 72.5

Compound | melting point [°C]
O=S(=O)(Cl)c1cccs1 | 28 to 30
C=CCC1(C(C)C)C(=O)NC(=O)NC1=O | 141 to 143
CCCCl | -123 to -122
Nc1ccc(Cc2ccc(N)cc2)cc1 | 90 to 92.5
Clc1ccccc1I | 0.7 to 1
Nc1ccc(Cl)cc1 | 70 to 72.5
Nc1cccc2cnccc12 | 128 to 129
CCN1C(=O)C=CC1=O | 44 to 45.5
CCCCNCCCC | -62 to -60
Cc1ccc(C)c(C)c1C | -6.2 to -6
Brc1ccc(Oc2ccc(Br)cc2)cc1 | 58 to 60.5
CCOC(=O)C(NC(C)=O)C(=O)OCC | 96.3 to 98
O=Cc1ccc2c(c1)OCO2 | 36 to 37
O=C(O)c1ccccc1N=Nc1ccc(O)cc1 | 205 to 206
NC(=O)c1cc([N+](=O)[O-])cc([N+](=O)[O-])c1 | 182 to 184
Cc1ccc(S(=O)(=O)F)cc1 | 41 to 41.5
C/C=C/C=O | -76.5 to -76
Clc1ccc(Cl)nc1 | 60.5 to 61
O=Cc1ccc2ccccc2n1 | 68 to 71
CC(C)(C)c1ccc(C(O)CCCN2CCC(C(O)(c3ccccc3)c3ccccc3)CC2)cc1 (stereo not given) | 147 to 148
CC(=O)NC(=O)CN | 138 to 142
Cc1cccc(C#N)c1 | -27 to -23
CCCCCCCCCCCCCCCCCCO | 58 to 61
Cc1c(C)c(C)c(Br)c(C)c1C | 162 to 165

Compound | melting point [°C]
CCCCOc1ccccc1 | -19.4 to -19
Nc1ccc(C(=O)c2ccccc2)cc1 | 122 to 123
C=C(C#N)C(=O)OCC | -22.5 to -22
CCC(C)OC(C)=O (stereo not given) | -99 to -98.9
CCOc1ccccc1O | 26 to 29
CCOC(=O)c1ccccc1[N+](=O)[O-] | 28 to 30
c1ccc(/N=N/c2ccccc2)cc1 | 67 to 69
NC(=O)c1cccnc1 | 130
NNC(=O)c1ccc(N)cc1 | 226 to 228
Oc1c(F)c(F)c(F)c(F)c1F | 32.8 to 35
Cc1cccc2c(C)cccc12 | 80 to 82
O=C1c2ccccc2C(=O)c2ccccc21 | 284 to 286
CC(C)C(Br)C(=O)O (stereo not given) | 39 to 44
O=C(O)COc1ccc(Cl)cc1Cl | 138 to 140
Fc1c(F)c(F)c(-c2c(F)c(F)c(F)c(F)c2F)c(F)c1F | 67 to 68
O=[N+]([O-])c1ccccc1F | -8 to -6
COC(=O)CS(=O)(=O)c1ccccc1 | 30 to 35
CC(C)c1ccc(C(=O)O)cc1 | 118 to 119
CCCCCCCCCCCBr | -10 to -9
COc1ccc([N+](=O)[O-])c(OC)c1 | 74 to 76.5
Cc1cc(O)ccc1O | 128 to 129
O=S=O | -73 to -72
CN(C)c1ccc(N(C)C)cc1 | 50 to 51

Next, values leading:

melting point [°C] | Compound
136 to 137 | CC(C)CC(N)=O
-26 to -25 | CC(C)(C)Cl
10 to 11 | NCCO
96 to 100 | CN(C)c1ccc(C=Nc2ccccc2)cc1
60 to 61 | O=C1CCCCCCCCCCC1
-36 to -35 | ClCCCl
65 to 67 | O=C(c1ccc(Cl)cc1)c1ccccc1Cl
144 to 146 | O=C(c1ccccc1)c1ccc(O)cc1O
41 to 41.5 | Ic1ccc(I)s1
-10 to -9.6 | CCCCCCCCCCCC
73.5 to 74 | Fc1ccccc1-c1ccccc1
130 to 132 | CCCCCCCCCCCC[N+](C)(C)[O-]
188 to 189 | Nc1ccc(C(=O)O)cc1
70 to 72 | CN(C)c1cccc2c(S(=O)(=O)Cl)cccc12
196 to 201 | Oc1c(Br)cc(Br)c2cccnc12
74 to 76 | COc1cc(C=CCO)ccc1O
-2 to -1.8 | C1=Cc2ccccc2C1
-43.3 to -43 | CCCCCCC=O
29 to 32 | Nc1ccccc1Br
31 to 32 | CCCCCCCCCC(=O)O
-40 to -39 | CCC(=O)CC
42 to 43 | O=[N+]([O-])c1ccccc1Br
16 to 19 | ClC(c1ccccc1)c1ccccc1
-64 to -63 | CCN1CCOCC1
-93 to -92.9 | C=C(C)OC(C)=O

melting point [°C] | Compound
-53 to -50 | CC1CCC2CC1C2(C)C (stereo not given)
217 to 221 | OCC(CO)(CO)COCC(CO)(CO)CO
30 to 31.9 | COC(=O)CCCCCCCCCCC(=O)OC
156 to 158 | NNC(=O)c1cccc(Br)c1
61 to 66 | Clc1cccc(Cl)c1Br
92 to 94 | COc1cccc(C(=O)NN)c1
-124 | CC=C(C)C(C)C
92 to 93 | Cc1ccc(CC(=O)O)cc1
199 to 201 | CC(C)(C)c1ccc2oc(-c3ccc(-c4nc5cc(C(C)(C)C)ccc5o4)s3)nc2c1
64.5 to 65 | Cn1nnc2ccccc21
76 to 78 | Cc1ccc([N+](=O)[O-])cc1Br
96.5 to 98 | CCC(=O)c1cc(O)ccc1O
51 to 54 | CCCCCCCCCCCCCCCCCCCCCCCC
127 | O=C(O)CCCC(=O)c1ccccc1
65 to 66 | O=C(O)C(=O)c1ccccc1
53 to 54 | OCc1ccncc1
119 to 121 | O=[N+]([O-])c1ccc(O)c(F)c1
209 to 211 | O=C1c2ccccc2C(=O)c2cc(Cl)ccc21
28 to 29 | CCOc1ccc(I)cc1
-131 to -130 | CCC#CCCC
3 to 3.66 | Cc1ccncc1
146 to 147 | O=C(O)C(c1ccccc1)c1ccccc1
120 to 121 | COc1cc(OC)c(C=O)c(OC)c1
114 to 115 | Cc1cc(O)cc(C)c1Cl
102 to 107 | CC1=CC(=O)c2ccccc2C1=O

melting point [°C] | Compound
-86 to -82.5 | CCO[Si](OCC)(OCC)OCC
100 to 103 | Nc1ccc(Cl)c([N+](=O)[O-])c1
-80.3 to -80 | CCCCCCC(C)C
98 to 99 | CC(=O)c1cccc(C#N)c1
65 to 65.5 | CC(=O)Nc1cccc(C)c1
122 to 126 | O=C1CCN(c2ccccc2)N1
-7.4 to -7 | CC(C)c1cc(C(C)C)cc(C(C)C)c1
-93 to -92.9 | CCCOC=O
69 to 72 | COc1ccc(C=O)c(OC)c1
224 to 225 | c1ccc(C(=C(c2ccccc2)c2ccccc2)c2ccccc2)cc1
2 to 2.2 | CC(C)(C)c1cccc(C(C)(C)C)n1
148 to 150 | O=C(O)COc1ccccc1Cl
87.5 to 89 | CC(C)(C)OC(=O)NCC(=O)O
-10 to -9 | C=CCc1ccc(O)c(OC)c1
131 to 132 | CN1C(=O)C(=O)c2ccccc21
-36 to -35 | Cc1ccccc1Cl
-162 | CC1CCC1
131 to 134 | O=C(O)CCCCCCCCC(=O)O
63 to 65 | C=Cn1c2ccccc2c2ccccc21
21 to 22 | c1cncnc1
31 to 32 | COc1cccc(Cl)c1Cl
74 to 75 | CCCOC(=O)c1ccc(N)cc1
184 to 187 | O=C(O)c1ccccc1Nc1ccccc1
-1 to 0 | CCCCCCCCN
220 | CN(C)c1cccc2c(S(N)(=O)=O)cccc12
